Experimental data taken from article PMC6733907, “Structural basis for activation of a diguanylate cyclase required for bacterial predation in Bdellovibrio” (Nature Communications, 2019).
Where “and” joins values, the source holds several entries; their conditions need not be identical. Identical values can stand only once.

Assays:
[1] = molecular target: T1, DgcB (full-length) (Bdellovibrio bacteriovorus, UniProt Q6MPU8); test: X-ray crystal structure, […] Å, co-purified ligand; format: binding; conditions: I-site (RxxD: R218, D221) of both monomers; two c-di-GMP per dimer; product, feedback inhibitor
T1 construct: gene Bd0742; full-length aa 1-310 (own numbering), C-terminal thrombin-cleavable 8xHis tag, E. coli BL21 lambda DE3; dimer with c-di-GMP
T1 sequence (Q6MPU8 11-320): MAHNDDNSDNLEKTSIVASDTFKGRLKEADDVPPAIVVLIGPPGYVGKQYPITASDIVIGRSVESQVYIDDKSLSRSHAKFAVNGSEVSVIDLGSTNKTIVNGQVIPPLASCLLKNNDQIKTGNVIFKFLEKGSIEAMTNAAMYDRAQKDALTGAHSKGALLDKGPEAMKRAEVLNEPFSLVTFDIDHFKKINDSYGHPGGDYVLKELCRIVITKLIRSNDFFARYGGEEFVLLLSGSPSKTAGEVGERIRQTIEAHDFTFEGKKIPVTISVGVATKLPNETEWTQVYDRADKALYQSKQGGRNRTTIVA

[2] = molecular target: T2, GGDEF-only construct of DgcB (Bdellovibrio bacteriovorus, UniProt Q6MPU8); test: co-purification of c-di-GMP with the protein; format: binding; conditions: I-site
T2 construct: gene Bd0742; GGDEF domain only, aa 148-310 (own numbering), C-terminal thrombin-cleavable 8xHis tag, E. coli BL21 lambda DE3
T2 sequence (Q6MPU8 158-320): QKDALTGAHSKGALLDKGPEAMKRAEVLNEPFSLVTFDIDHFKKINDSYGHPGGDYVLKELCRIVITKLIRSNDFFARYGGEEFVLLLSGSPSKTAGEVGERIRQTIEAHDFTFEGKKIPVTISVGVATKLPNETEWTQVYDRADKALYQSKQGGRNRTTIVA

[3] = molecular target: DgcB S15C-S73C-R218A (disulphide-stapled double cysteine mutant), full length (Bdellovibrio bacteriovorus HD100); test: SEC; non-reducing gel-filtration (buffer without DTT) after overnight incubation with 5 mM oxidised glutathione, sample at 50 mg/ml; sizes calibrated to known standards

Row | stoichiometry N [3] | Compound | X-ray crystal structure, 1.79 Å, co-purified ligand [1] | co-purification of c-di-GMP with the protein [2]
1 | – | Nc1nc2c(ncn2[C@@H]2O[C@@H]3COP(=O)(O)O[C@H]4[C@@H](O)[C@H](n5cnc6c(=O)[nH]c(N)nc65)O[C@@H]4COP(=O)(O)O[C@H]3[C@H]2O)c(=O)[nH]1 [c-di-GMP] | The dimer is stabilized by two molecules of c-di-GMP (classically intercalating via their planar bases) | the GGDEF-only construct purifies with a small amount of c-di-GMP at the I-site
2 | 4 and 2 | DgcB S15C-S73C-R218A (disulphide-stapled double cysteine mutant), full length (enzyme) | – | –
